Tested on: dissociated dorsal ganglion sensory neurons
Test: Sensitization assay: capsaicin-induced Calcium Imaging response after sensitizing cocktail
Type: cell-based, mouse
Conditions: co-incubation with various doses of compound (0.002-1000 nM); sensitizing cocktail NGF, GDNF, PGE2, 1β; 3rd capsaicin-induced peak, Fura-2 f340/f380; FIG. 1
Description: Capsaicin, the active ingredient in pepper sprays, is an irritant that causes noxious respiratory sensations and reflexes including sneezing and coughing in humans. Capsaicin binds to Transient Receptor Potential Vanilloid 1 (TRPV1), whose expression is enriched in both somatic and visceral nociceptors. Exaggerated response to inhaled capsaicin can be seen in subjects with IPF or with cough hypersensitivity syndrome and can be used as a test. Increased reactivity to capsaicin is generally considered a marker of sensitization of nociceptors. Capsaicin effects in sensory neurons dissected from mouse peripheral ganglia can be used as a model to identify nociceptors and to study the sensitization mechanisms in vitro. Response to capsaicin can be quantified in a relatively large population of dissociated sensory neurons using the method of Calcium Imaging. […]
Each point represents how well the capsaicin-induced peak is reduced by the drug when compared with negative control (1, no sensitizing solution, no GSK-1) and positive control (0, sensitizing solution, no GSK-1). Calculated, it is:
Where C=the average relative f340/f380 value of peak 3 for the sensitization control (sensitizing solution, no GSK-1). X=the individual relative f340/f380 value to be calculated, and N=the average relative f340/f380 value of peak 3 for the negative control (no sensitization solution, no GSK-1).

## COc1ncc(-c2ccc3ncnc(N4CCOCC4)c3c2)cc1NS(=O)(=O)c1ccc(F)cc1F [GSK-1, 2,4-difluoro-N-{2-(methyloxy)-5-[4-(4-morpholinyl)-6-quinazolinyl]-3-pyridinyl}benzenesulfonamide]
  Effect on enhancement of the Calcium Imaging response to capsaicin by the sensitizing cocktail: dose-dependently abolished

From patent US20150031702A1, “PI3K INHIBITORS FOR TREATING COUGH” (GlaxoSmithkline Intellectual Property (No.2) Limited, priority 2012, published 2015)
